# Patent US20080161232A1, “C5a Receptor Antagonist” (JERINI AG, priority 2005, published 2008)
# Starred links: 1 amine or outer side, 2 acyl side, 3 side chain; linkers in the order of their positions; H or OH if unused. Positions of bridges follow the written chain, without caps; N, C: chain ends. Non-standard residues stand in square brackets, D forms with d. Residues, ends and D or L forms follow the SMILES beside them. *: point of attachment. Ala(piperidin-4-yl) = O=C([C@H](CC1CCN([*:3])CC1)N[*:1])[*:2]; Phe(4-guanidino) = N=C(N)Nc1ccc(C[C@H](N)C(=O)O)cc1; Dihydroorotyl(S) = O=C1C[C@@H](C(=O)*)NC(=O)N1; Phe(3-Cl) = N[C@@H](Cc1cccc(Cl)c1)C(=O)O; Phe(2-Cl) = N[C@@H](Cc1ccccc1Cl)C(=O)O; Phe(4-F) = N[C@@H](Cc1ccc(F)cc1)C(=O)O; Phe(4-Me) = Cc1ccc(C[C@H](N)C(=O)O)cc1; X4 = O=C([C@H](CNC1=NCCN1)N[*:1])[*:2]; Bta = N[C@@H](Cc1csc2ccccc12)C(=O)O; Hyp = O=C(O)[C@@H]1C[C@@H](O)CN1; d(hLeu) = CC(C)CC[C@@H](N)C(=O)O; β3hF = N[C@H](CC(=O)O)Cc1ccccc1; 2Thi = N[C@@H](Cc1cccs1)C(=O)O; dCha = N[C@H](CC1CCCCC1)C(=O)O; dChg = N[C@@H](C(=O)O)C1CCCCC1; Nle = CCCC[C@H](N)C(=O)O; Orn = NCCC[C@H](N)C(=O)O; CO = O=C([*:1])[*:2]; NHPh = c1ccc(N*)cc1
# Biological target: T1, human C5aR(CD88) (Homo sapiens, UniProt P21730)
# T1 construct: expressed in transfected cells; host or cells: rat basophilic leukemia cells (RBL)
# T1 sequence (P21730 1-350): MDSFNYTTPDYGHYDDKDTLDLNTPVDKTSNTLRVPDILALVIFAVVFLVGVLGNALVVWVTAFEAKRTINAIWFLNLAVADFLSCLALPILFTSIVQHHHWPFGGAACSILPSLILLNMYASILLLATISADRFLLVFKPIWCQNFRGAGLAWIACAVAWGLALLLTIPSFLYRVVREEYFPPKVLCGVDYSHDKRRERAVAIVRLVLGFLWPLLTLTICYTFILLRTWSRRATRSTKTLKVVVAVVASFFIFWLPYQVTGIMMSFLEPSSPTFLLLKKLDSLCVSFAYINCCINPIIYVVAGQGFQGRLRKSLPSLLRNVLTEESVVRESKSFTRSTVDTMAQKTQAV
# Assay: Determination of the IC50 value in an enzyme release assay (functional assay, antagonistic activity)
# Format: cell-based
# Details: antagonistic activity; IC50 group in enzyme release assay, RBL cells expressing human C5aR(CD88); read-out: activity (group)
row,Compound,IC50 [nM]
1,CC(=O)N[C@@H](Cc1ccccc1)C(=O)N[C@H]1CCCNC(=O)[C@H](CCC/N=C(/N)N[N+](=O)[O-])NC(=O)[C@H](Cc2c[nH]c3ccccc23)NC(=O)[C@@H](CC2CCCCC2)NC(=O)[C@@H]2CCCN2C1=O [compound 11],200 to 2000
2,"CC(=O)N[C@@H](Cc1ccccc1)C(=O)N[C@@H](CCCN)C(=O)N1CCC[C@H]1C(=O)N[C@H](CC1CCCCC1)C(=O)N[C@@H](Cc1csc2ccccc12)C(=O)N[C@@H](Cc1ccc(C)cc1)C(N)=O [Compound 260, Ac-Phe-Orn-Pro-cha-Bta-Pmf-NH2] (Ac-F[Orn]P[dCha][Bta][Phe(4-Me)]-NH2)",20 to 50
3,"CC(=O)N[C@@H](Cc1ccccc1)C(=O)N[C@H]1CCCNC(=O)[C@H](Cc2ccccc2)NC(=O)[C@H](Cc2cccc(Cl)c2)NC(=O)[C@@H](CCC(C)C)NC(=O)[C@@H]2C[C@@H](O)CN2C1=O [Compound 178, Ac-Phe-[Orn-Hyp-hle-Mcf-Phe]] (Ac-F[Orn][Hyp][d(hLeu)][Phe(3-Cl)]F; lactam 2-C)",50 to 200
4,CC(=O)N[C@@H](Cc1ccccc1)C(=O)N[C@H]1CCCNC(=O)[C@H](CC2CCNCC2)NC(=O)[C@H](Cc2c[nH]c3ccccc23)NC(=O)[C@@H](CC2CCCCC2)NC(=O)[C@@H]2CCCN2C1=O [compound 27] (Ac-F[Orn]P[dCha]W[Ala(piperidin-4-yl)]; lactam 2-C),> 2000
5,"CC(=O)N[C@@H](Cc1ccccc1)C(=O)N[C@@H](CNC1=NCCN1)C(=O)N1CCC[C@H]1C(=O)N[C@H](CC1CCCCC1)C(=O)N[C@@H](Cc1csc2ccccc12)C(=O)N[C@@H](Cc1ccccc1)C(N)=O [Compound 222, Ac-Phe-Fco-Pro-cha-Bta-Phe-NH2] (Ac-F[X4]P[dCha][Bta]F-NH2)",50 to 200
6,"CCCC[C@@H]1NC(=O)[C@H](Cc2c[nH]c3ccccc23)NC(=O)[C@@H](CC2CCCCC2)NC(=O)[C@@H]2CCCN2C(=O)[C@@H](NC(=O)[C@@H](N)Cc2ccccc2)CCCNC1=O [Compound 376, H-Phe-[Orn-Pro-cha-Trp-Nle]] (H-F[Orn]P[dCha]W[Nle]; lactam 2-C)",50 to 200
7,"NCCC[C@H](NC(=O)[C@H](Cc1ccccc1)NC(=O)Nc1ccccc1)C(=O)N1CCC[C@H]1C(=O)N[C@H](CC1CCCCC1)C(=O)N[C@@H](Cc1c[nH]c2ccccc12)C(=O)N[C@@H](Cc1ccccc1)C(N)=O [Compound 85, Ph-NH—CO-Phe-Orn-Pro-cha-Trp-Phe-NH2] ({NHPh-CO}-F[Orn]P[dCha]WF-NH2)",50 to 200
8,"CC(=O)N[C@@H](Cc1ccccc1)C(=O)N[C@@H](Cc1ccc(NC(=N)N)cc1)C(=O)N1CCC[C@H]1C(=O)N[C@H](CC1CCCCC1)C(=O)N[C@@H](Cc1csc2ccccc12)C(=O)N[C@@H](Cc1ccccc1)C(N)=O [Compound 228, Ac-Phe-Guf-Pro-cha-Bta-Phe-NH2] (Ac-F[Phe(4-guanidino)]P[dCha][Bta]F-NH2)",20 to 50
9,"CCCC[C@@H]1NC(=O)[C@H](Cc2c[nH]c3ccccc23)NC(=O)[C@@H](CC2CCCCC2)NC(=O)[C@@H]2C[C@@H](O)CN2C(=O)[C@@H](NC(=O)[C@@H](N)Cc2ccccc2)CCCNC1=O [Compound 356, H-Phe-[Orn-Hyp-cha-Trp-Nle]] (H-F[Orn][Hyp][dCha]W[Nle]; lactam 2-C)",20 to 50
10,"CCCC[C@@H]1NC(=O)[C@H](Cc2ccc(F)cc2)NC(=O)[C@@H](CCC(C)C)NC(=O)[C@@H]2C[C@@H](O)CN2C(=O)[C@@H](NC(=O)[C@@H](N)Cc2ccccc2)CCCNC1=O [Compound 365, H-Phe-[Orn-Hyp-hle-Pff-Nle]] (H-F[Orn][Hyp][d(hLeu)][Phe(4-F)][Nle]; lactam 2-C)",50 to 200
11,"CC(=O)N[C@@H](Cc1ccccc1)C(=O)N[C@@H](CCCN)C(=O)N1CCC[C@H]1C(=O)N[C@H](CCC(C)C)C(=O)N[C@@H](Cc1ccccc1Cl)C(=O)N[C@@H](Cc1ccccc1)C(N)=O [Compound 294, Ac-Phe-Orn-Pro-hle-Ocf-Phe-NH2] (Ac-F[Orn]P[d(hLeu)][Phe(2-Cl)]F-NH2)",50 to 200
12,"CC(=O)N[C@@H](Cc1cccs1)C(=O)N[C@H]1CCCNC(=O)[C@H](Cc2ccccc2)NC(=O)[C@H](Cc2csc3ccccc23)NC(=O)[C@@H](CCC(C)C)NC(=O)[C@@H]2CCCN2C1=O [Compound 311, Ac-Thi-[Orn-Pro-hle-Bta-Phe]] (Ac-[2Thi][Orn]P[d(hLeu)][Bta]F; lactam 2-C)",50 to 200
13,"CCCC[C@@H]1NC(=O)[C@H](Cc2c[nH]c3ccccc23)NC(=O)[C@@H](CC2CCCCC2)NC(=O)[C@H](CO)NC(=O)[C@@H](NC(=O)[C@@H](N)Cc2ccccc2)CCCNC1=O [Compound 382, H-Phe-[Orn-Ser-cha-Trp-Nle]] (H-F[Orn]S[dCha]W[Nle]; lactam 2-C)",20 to 50

# Continued, values first:
row,IC50 [nM],Compound
1,20 to 50,"CC(=O)N[C@@H](Cc1cccs1)C(=O)N[C@@H](CCCN)C(=O)N1CCC[C@H]1C(=O)N[C@H](CC1CCCCC1)C(=O)N[C@@H](Cc1csc2ccccc12)C(=O)N[C@@H](Cc1ccccc1)C(N)=O [Compound 312, Ac-Thi-Orn-Pro-cha-Bta-Phe-NH2] (Ac-[2Thi][Orn]P[dCha][Bta]F-NH2)"
2,50 to 200,"NCCC[C@H](NC(=O)[C@H](Cc1ccccc1)NC(=O)CN)C(=O)N1CCC[C@H]1C(=O)N[C@H](CC1CCCCC1)C(=O)N[C@@H](Cc1csc2ccccc12)C(=O)N[C@@H](Cc1ccccc1)C(N)=O [Compound 345, H-Gly-Phe-Orn-Pro-cha-Bta-Phe-NH2] (H-GF[Orn]P[dCha][Bta]F-NH2)"
3,50 to 200,"CC(=O)N[C@@H](Cc1cccs1)C(=O)N[C@@H](CCCN)C(=O)N1CCC[C@H]1C(=O)N[C@H](CC1CCCCC1)C(=O)N[C@@H](Cc1c[nH]c2ccccc12)C(=O)N[C@@H](Cc1ccccc1)C(N)=O [Compound 77, Ac-Thi-Orn-Pro-cha-Trp-Phe-NH2] (Ac-[2Thi][Orn]P[dCha]WF-NH2)"
4,20 to 50,"CC(=O)N[C@@H](Cc1ccccc1)C(=O)N[C@@H](CCCN)C(=O)N1CCC[C@H]1C(=O)N[C@H](CC1CCCCC1)C(=O)N[C@@H](Cc1csc2ccccc12)C(=O)N[C@H](CC(N)=O)Cc1ccccc1 [Compound 250, Ac-Phe-Orn-Pro-cha-Bta-Bhf-NH2] (Ac-F[Orn]P[dCha][Bta][β3hF]-NH2)"
5,50 to 200,"CC(=O)N[C@@H](Cc1ccccc1)C(=O)N[C@H]1CCCNC(=O)[C@H](Cc2ccccc2)NC(=O)[C@H](Cc2ccc(F)cc2)NC(=O)[C@@H](CCC(C)C)NC(=O)[C@@H]2C[C@@H](O)CN2C1=O [Compound 180, Ac-Phe-[Orn-Hyp-hle-Pff-Phe]] (Ac-F[Orn][Hyp][d(hLeu)][Phe(4-F)]F; lactam 2-C)"
6,200 to 2000,"CC(=O)N[C@@H](Cc1ccccc1)C(=O)N[C@@H](CCCN)C(=O)N1CCC[C@H]1C(=O)N[C@@H](C(=O)N[C@@H](Cc1c[nH]c2ccccc12)C(=O)N[C@@H](Cc1ccccc1)C(=O)O)C1CCCCC1 [Compound 118, Ac-Phe-Orn-Pro-chg-Trp-Phe-OH] (Ac-F[Orn]P[dChg]WF-OH)"
7,50 to 200,"CC(C)CC[C@@H](NC(=O)[C@@H]1C[C@@H](O)CN1C(=O)[C@H](CCCN)NC(=O)[C@H](Cc1ccccc1)NC(=O)[C@@H]1CC(=O)NC(=O)N1)C(=O)N[C@@H](Cc1ccc(F)cc1)C(=O)N[C@@H](Cc1ccccc1)C(N)=O [Compound 349, Hoo-Phe-Orn-Hyp-hle-Pff-Phe-NH2] ({Dihydroorotyl(S)}-F[Orn][Hyp][d(hLeu)][Phe(4-F)]F-NH2)"
